In US20040102423A1, “Spironolactone and angiotensin II antagonist combination therapy for treatment of congestive heart failure” (G.D. Searle & Co., priority 1995, published 2004):
Read-outs that look alike come from different tables or passages of the source.

Experiments:
rabbit aortic rings = test: Assay B: In vitro vascular smooth muscle response for AII (antagonist activity, pA2); type: cell-based; conditions: Oryctolagus cuniculus, two values in a cell = two determinations
In short: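 Endothelium-denuded thoracic aortic rings from male New Zealand white rabbits, in oxygenated Krebs at 37° C. under ~1 g tension, gave isometric AII contraction curves (3×10^−10 to 1×10^−5 M).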

pressor response to AII = test: Assay C: In vivo intragastric pressor assay response for AII antagonists; parameters: species or system Sprague-Dawley rats; conditions: in vivo pressor response; for inhibition in vivo at 3 mg/kg / inhibition in vivo at 10 mg/kg / inhibition in vivo at 30 mg/kg / inhibition in vivo at 100 mg/kg: Rattus norvegicus; for inhibition in vivo at 30 mg/kg: read-out: Assay C Inhibition
[1] = target: angiotensin II AT1 receptor; test: Assay A: Angiotensin II binding activity, rat uterine membrane preparation, 125I-AII displacement
[2] = intraduodenal, 3 mg/kg intraduodenally
[3] = intraduodenal, 30 mg/kg intraduodenally
[4] = intraduodenal, 100 mg/kg intraduodenally
[5] = intraduodenal, 10 mg/kg intraduodenally

| SMILES | Kb (rabbit aortic rings) [nM] | inhibition in vivo at 3 mg/kg (pressor response to AII; po, 3 mg/kg intragastrically) [%] | Assay C Duration (pressor response to AII; 3 mg/kg intragastrically) [min] | IC50 [1] [nM] | further results |
| --- | --- | --- | --- | --- | --- |
| CCCCc1nc(-c2ccccc2Cl)nn1Cc1ccc(-c2ccccc2-c2nnn[nH]2)nc1 [Compound 278] | 3.24 | 50 | >180 | 30 | – |
| CCCCc1cn(C)c(=O)n1Cc1ccc(-c2ccccc2-c2nnn[nH]2)nc1 [Compound 205] | 0.724 | 40 | >180 | 20 | – |
| CCCCc1nc(CCC)n(Cc2ccc(-c3ccccc3-c3nnn[nH]3)cc2)n1 [Compound 26] | 0.148 | – | – | 3.2 | inhibition in vivo at 10 mg/kg (pressor response to AII; po, 10 mg/kg intragastrically): 50%; Assay C Duration (pressor response to AII; 10 mg/kg intragastrically): >180 min |
| CCCCc1c(C)n(CCCC)c(=O)n1Cc1ccc(-c2ccccc2-c2nnn[nH]2)cc1 [Compound 148] | 1580 | – | – | 0.87 | inhibition in vivo at 3 mg/kg (pressor response to AII; [2]): 92%; Assay C Duration (pressor response to AII; 3 mg/kg intraduodenally): 20 to 30 min |
| CCCCc1nn(CC(O)c2cc(OC)ccc2OC)c(=O)n1Cc1ccc(-c2ccccc2-c2nn[nH]n2)cc1 (stereo not drawn) [Compound 109] | 50.1 | – | – | 250 | inhibition in vivo at 30 mg/kg (pressor response to AII; [3]): 50%; Assay C Duration (pressor response to AII; 30 mg/kg intraduodenally): 30 min |
| CCCCc1nc2c(O)nnc(O)c2n1Cc1ccc(-c2ccccc2C(=O)O)cc1 [Compound 120] | 0.891 | – | – | 25 | inhibition in vivo at 10 mg/kg (pressor response to AII; po, 10 mg/kg intragastrically): 80%; Assay C Duration (pressor response to AII; 10 mg/kg intragastrically): 240 min |
| CCCCc1cn(CC)c(=O)n1Cc1ccc(-c2ccccc2-c2nnn[nH]2)nc1 [Compound 206] | 1.78 | 30 | >180 | 5.4 | – |
| CCCCCn1cc(CCCC)n(Cc2ccc(-c3ccccc3-c3nnn[nH]3)nc2)c1=O [Compound 210] | 4.37 | 15 | 180 | 3.6 | – |
| COC(=O)CC[C@]1(O)CC[C@H]2[C@@H]3C4CC4C4=CC(=O)CC[C@]4(C)[C@]34OC4C[C@@]21C (stereo partly drawn) [Compound 7] | 9.77 | – | – | 84 | inhibition in vivo at 30 mg/kg (pressor response to AII; [3]): 90%; Assay C Duration (pressor response to AII; 30 mg/kg intraduodenally): 130 min |
| CCCCc1nn(C(C)(C)C(=O)c2ccccc2)c(=O)n1Cc1ccc(-c2ccccc2-c2nn[nH]n2)cc1 [Compound 113] | 3.98 | – | – | 12 | inhibition in vivo at 10 mg/kg (pressor response to AII; po, 10 mg/kg intragastrically): 60%; Assay C Duration (pressor response to AII; 10 mg/kg intragastrically): 180 min |
| CCCn1cc(CC(C)C)n(Cc2ccc(-c3ccccc3-c3nnn[nH]3)nc2)c1=O [Compound 198] | 1.74 | 35 | >180 | 7.6 | – |
| CCCCn1cc(C2CCCC2)n(Cc2ccc(-c3ccccc3-c3nnn[nH]3)nc2)c1=O [Compound 203] | 3.72 | 50 | >180 | 9.2 | – |
| CCCCc1nn(CC(OCc2ccccc2)c2ccccc2)c(=O)n1Cc1ccc(-c2ccccc2-c2nn[nH]n2)cc1 (stereo not drawn) [Compound 108] | 5010 | – | – | 720 | inhibition in vivo at 100 mg/kg (pressor response to AII; [4]): 45%; Assay C Duration (pressor response to AII; 100 mg/kg intraduodenally): 90 min |
| CCCCn1cc(CC(C)C)n(Cc2ccc(-c3ccccc3-c3nnn[nH]3)nc2)c1=O [Compound 199] | 1.62 | 60 | >180 | 10 | – |
| CCCCc1ncn(Cc2ccc(-c3ccccc3C(=O)O)cc2)n1 [Compound 30] | 18.6 | – | – | 22 | inhibition in vivo at 30 mg/kg (pressor response to AII; [3]): 50%; Assay C Duration (pressor response to AII; 30 mg/kg intraduodenally): >180 min |
| CCCCc1nn(CCCCC(=O)OC)c(=O)n1Cc1ccc(-c2ccccc2-c2nn[nH]n2)cc1 [Compound 111] | 1 | – | – | 45 | inhibition in vivo at 30 mg/kg (pressor response to AII; [3]): 87%; Assay C Duration (pressor response to AII; 30 mg/kg intraduodenally): 160 min |
| CCCCc1cn(CCC(C)C)c(=O)n1Cc1ccc(-c2ccccc2-c2nnn[nH]2)nc1 [Compound 209] | 0.389 | 25 | >180 | 5 | – |
| CCCCn1nc(C2OCCCO2)nc1Cc1ccc(-c2ccccc2-c2nnn[nH]2)nc1 [Compound 191] | 17.8 | 10 | 180 | 81 | – |
| CCCCc1nc(-c2ccccc2OC)nn1Cc1ccc(-c2ccccc2-c2nnn[nH]2)nc1 [Compound 276] | 1.95 | < 20 | – | 33 | – |
| CCCCc1nc(CCCC)n(Cc2ccc(-c3cnccc3-c3nnn[nH]3)cc2)n1 [Compound 255] | 24.5 | 20 | >180 | 12 | – |

| SMILES | Kb (rabbit aortic rings) [nM] | inhibition in vivo at 3 mg/kg (pressor response to AII; po, 3 mg/kg intragastrically) [%] | Assay C Duration (pressor response to AII; 3 mg/kg intragastrically) [min] | IC50 [1] [nM] | further results |
| --- | --- | --- | --- | --- | --- |
| CCCCc1nc(CCCC)n(Cc2ccc(-n3c(Br)ccc3-c3nnn[nH]3)cc2)n1 [Compound 152] | 34.7 | 10 | 140 | 150 | – |
| CCCCc1nc2cnncc2n1Cc1ccc(-c2ccccc2C(=O)O)cc1 [Compound 119] | 0.617 | 20 | 60 | 16 | – |
| C[C@]12C=CC(=O)C=C1[C@@H]1CC1[C@H]1[C@@H]3CC[C@@]4(CCC(=O)O4)[C@@]3(C)CC3O[C@]312 (stereo partly drawn) [Compound 6] | 282 | – | – | 1300 | inhibition in vivo at 100 mg/kg (pressor response to AII; [4]): 90%; Assay C Duration (pressor response to AII; 100 mg/kg intraduodenally): 120 min |
| CCCCn1nc(C=O)nc1Cc1ccc(-c2ccccc2-c2nnn[nH]2)nc1 [Compound 190] | 13.5 | 10 | 180 | 10 | – |
| CCCCc1nc(Cl)n(Cc2ccc(-c3ccccc3-c3nnn[nH]3)cc2)n1 [Compound 20] | 1290 | – | – | 78000 | inhibition in vivo at 100 mg/kg (pressor response to AII; [4]): 10%; Assay C Duration (pressor response to AII; 100 mg/kg intraduodenally): 45 min |
| C[C@]12CCC(=O)C=C1[C@@H]1CC1[C@H]1[C@@H]3CC[C@@]4(CCC(=O)O4)[C@@]3(C)CC3O[C@]312 (stereo partly drawn) [Compound 3] | 2 | – | – | 5.4 | inhibition in vivo at 10 mg/kg (pressor response to AII; po, 10 mg/kg intragastrically): 50%; inhibition in vivo at 30 mg/kg (pressor response to AII; po, 30 mg/kg intragastrically): 100%; Assay C Duration (pressor response to AII; 10 mg/kg intragastrically): >180 min; Assay C Duration (pressor response to AII; 30 mg/kg intragastrically): 200^+ min. |
| CCCCc1nn(CC2CC2)c(=O)n1Cc1ccc(-c2ccccc2-c2nn[nH]n2)cc1 [Compound 115] | 6.31 | 40 | >240 | 11 | – |
| CCCCc1nc(-c2ccccc2C)n(Cc2ccc(-c3ccccc3-c3nnn[nH]3)nc2)n1 [Compound 273] | 2.95 | 25 | >180 | 9.8 | – |
| CCCn1nc(C(C)(F)F)nc1Cc1ccc(-c2ccccc2-c2nnn[nH]2)nc1 [Compound 176] | 20.4 | 10 | 150 | 9.8 | – |
| CCCCc1cn(C2CCCCC2(C)C)c(=O)n1Cc1ccc(-c2ccccc2-c2nnn[nH]2)nc1 (stereo not drawn) [Compound 248] | 20.9 | 10 | – | 20 | – |
| CCCCc1nn(CC(OCC(=O)OCC)c2ccccc2)c(=O)n1Cc1ccc(-c2ccccc2-c2nn[nH]n2)cc1 (stereo not drawn) [Compound 118] | 0.617 | – | – | 37 | inhibition in vivo at 10 mg/kg (pressor response to AII; [5]): 70%; Assay C Duration (pressor response to AII; 10 mg/kg intraduodenally): 120 min |
| CCCCc1cn(-c2c(Cl)cccc2Cl)c(=O)n1Cc1ccc(-c2ccccc2-c2nnn[nH]2)nc1 [Compound 232] | 2.57 | 70 | >180 | 4.4 | – |
| CCCCc1cn(C(C)C)c(=O)n1Cc1ccc(-c2ccccc2-c2nnn[nH]2)nc1 [Compound 211] | 1.82 | 35 | >180 | 18 | – |
| CCCCc1cn(C2CCCCC2)c(=O)n1Cc1ccc(-c2ccccc2-c2nnn[nH]2)cc1 [Compound 147] | 2510 | – | – | 5.8 | inhibition in vivo at 3 mg/kg (pressor response to AII; [2]): 74%; Assay C Duration (pressor response to AII; 3 mg/kg intraduodenally): 5 to 10 min |
| COC(=O)CC[C@]1(O)CC[C@H]2[C@@H]3[C@H](C(=O)OC)CC4=CC(=O)CC[C@]4(C)C34O[C@@H]4C[C@@]21C (stereo partly drawn) [Compound 2] | 42.7 | – | – | 95 | inhibition in vivo at 10 mg/kg (pressor response to AII; [5]): 95%; inhibition in vivo at 30 mg/kg (pressor response to AII; [3]): 98%; Assay C Duration (pressor response to AII; 10 mg/kg intraduodenally): 60 min; Assay C Duration (pressor response to AII; 30 mg/kg intraduodenally): 90 to 120 min |
| CCCCn1nc(-c2ccccc2Cl)nc1Cc1ccc(-c2ccccc2-c2nnn[nH]2)nc1 [Compound 169] | 16.6 | 15 | 180 | 150 | – |
| CCCCc1nc(-c2ccccc2C(C)C)nn1Cc1ccc(-c2ccccc2-c2nnn[nH]2)nc1 [Compound 274] | 0.871 | 35 | >180 | 13 | – |
| CCCCn1cc(C2CCCCC2)n(Cc2ccc(-c3ccccc3-c3nnn[nH]3)nc2)c1=O [Compound 202] | 1.62 | 65 | >180 | 12 | – |
| CCCCc1cn(C2CCCCC2)c(=O)n1Cc1ccc(-c2ccccc2-c2nnn[nH]2)nc1 [Compound 216] | 1.58 | 50 | >180 | 5.4 | – |
| CCCCc1cn([C@H]2[C@H](C)CCC[C@@H]2C)c(=O)n1Cc1ccc(-c2ccccc2-c2nnn[nH]2)nc1 [Compound 247] | 5.5 | 20 | 180 | 9.4 | – |
